Source: paper PMC6028563, “Probing Substituents in the 1- and 3-Position: Tetrahydropyrazino-Annelated Water-Soluble Xanthine Derivatives as Multi-Target Drugs With Potent Adenosine Receptor Antagonistic Activity” (Frontiers in Chemistry, 2018)
Several values for one entry are separate records, joined by “and”; a condition that tells them apart may be missing. Equal entries are not always repeated. Where two headings read alike, the source gives them in different places.

Experiments:
recombinant human MAO-A = biological target: T1, recombinant human MAO-A (Homo sapiens, UniProt P21397); assay: Monoamine oxidase assay (Amplex Red), MAO-A; format: biochemical
T1 construct: purchased Sigma-Aldrich M7316; host or cells: baculovirus-infected insect cells
T1 sequence (P21397 1-527): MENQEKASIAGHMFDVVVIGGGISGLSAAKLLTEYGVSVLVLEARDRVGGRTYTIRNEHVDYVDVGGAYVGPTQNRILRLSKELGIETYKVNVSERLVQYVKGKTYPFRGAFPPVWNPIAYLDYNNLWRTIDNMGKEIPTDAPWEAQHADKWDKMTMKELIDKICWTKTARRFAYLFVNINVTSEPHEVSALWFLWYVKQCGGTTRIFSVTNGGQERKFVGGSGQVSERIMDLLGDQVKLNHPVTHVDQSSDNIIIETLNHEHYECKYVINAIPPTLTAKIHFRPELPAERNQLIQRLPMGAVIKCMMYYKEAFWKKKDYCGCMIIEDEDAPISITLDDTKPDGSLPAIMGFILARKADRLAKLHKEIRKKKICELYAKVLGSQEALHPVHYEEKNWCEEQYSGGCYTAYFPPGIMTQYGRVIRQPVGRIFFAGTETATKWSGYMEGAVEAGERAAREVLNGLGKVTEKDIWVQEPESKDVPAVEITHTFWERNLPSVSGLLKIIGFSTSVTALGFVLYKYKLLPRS
Procedure, shortened: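 Recombinant human MAO-A and MAO-B, expressed in baculovirus-infected insect cells, were assayed by Amplex Red fluorometric detection. Rat MAO-B inhibition used mitochondria-enriched fractions from male Sprague Dawley rat liver.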

human A1 AR = biological target: T2, human A1 AR (Homo sapiens, UniProt P30542); settings: cited from earlier work
T2 construct: expressed in transfected cells; host or cells: CHO cells
T2 sequence (P30542 1-326): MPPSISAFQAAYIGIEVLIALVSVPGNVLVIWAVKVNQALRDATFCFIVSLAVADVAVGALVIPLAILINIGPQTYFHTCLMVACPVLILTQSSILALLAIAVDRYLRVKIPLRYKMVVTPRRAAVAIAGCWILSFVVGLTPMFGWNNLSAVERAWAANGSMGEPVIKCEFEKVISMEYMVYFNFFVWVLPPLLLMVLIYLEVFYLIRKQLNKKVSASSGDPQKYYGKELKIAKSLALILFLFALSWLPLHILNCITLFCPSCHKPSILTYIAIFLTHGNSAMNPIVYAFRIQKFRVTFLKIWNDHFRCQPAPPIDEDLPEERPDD

human A3 AR = biological target: T3, human A3 AR (Homo sapiens, UniProt P0DMS8); settings: cited from earlier work; for Ki: human (h)
T3 construct: expressed in transfected cells; host or cells: CHO cells
T3 sequence (P0DMS8 1-318): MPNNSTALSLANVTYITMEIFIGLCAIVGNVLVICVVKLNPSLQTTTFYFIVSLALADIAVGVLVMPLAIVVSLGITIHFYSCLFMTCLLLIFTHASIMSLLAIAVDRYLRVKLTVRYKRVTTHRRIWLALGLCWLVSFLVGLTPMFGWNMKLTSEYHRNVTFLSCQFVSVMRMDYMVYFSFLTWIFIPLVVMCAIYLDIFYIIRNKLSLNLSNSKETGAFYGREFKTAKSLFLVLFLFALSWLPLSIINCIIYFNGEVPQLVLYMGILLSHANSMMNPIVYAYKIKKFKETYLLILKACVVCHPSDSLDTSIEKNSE

human A2B AR = biological target: T4, human A2B AR (Homo sapiens, UniProt P29275); settings: cited from earlier work
T4 construct: expressed in transfected cells; host or cells: CHO cells
T4 sequence (P29275 1-332): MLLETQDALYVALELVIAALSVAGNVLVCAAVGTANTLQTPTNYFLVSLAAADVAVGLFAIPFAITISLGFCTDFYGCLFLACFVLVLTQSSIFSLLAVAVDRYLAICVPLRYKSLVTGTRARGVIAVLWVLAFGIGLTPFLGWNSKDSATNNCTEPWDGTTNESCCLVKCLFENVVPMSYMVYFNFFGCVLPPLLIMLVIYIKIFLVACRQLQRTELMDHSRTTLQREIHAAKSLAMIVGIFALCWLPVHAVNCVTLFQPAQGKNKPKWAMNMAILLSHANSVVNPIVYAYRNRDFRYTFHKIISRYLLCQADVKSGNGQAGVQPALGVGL

[1] = system: haloperidol-induced catalepsy; design: method as in Wang et al., 2017; Robinson et al., 2015; settings: rat; ref Wang et al., 2017; Robinson et al., 2015; cited from earlier work
recombinant human MAO-B = biological target: T5, recombinant human MAO-B (Homo sapiens, UniProt P27338); settings: human (h), 2013, cited from earlier work
T5 construct: purchased Sigma-Aldrich M7441; host or cells: baculovirus-infected insect cells
T5 sequence (P27338 1-520): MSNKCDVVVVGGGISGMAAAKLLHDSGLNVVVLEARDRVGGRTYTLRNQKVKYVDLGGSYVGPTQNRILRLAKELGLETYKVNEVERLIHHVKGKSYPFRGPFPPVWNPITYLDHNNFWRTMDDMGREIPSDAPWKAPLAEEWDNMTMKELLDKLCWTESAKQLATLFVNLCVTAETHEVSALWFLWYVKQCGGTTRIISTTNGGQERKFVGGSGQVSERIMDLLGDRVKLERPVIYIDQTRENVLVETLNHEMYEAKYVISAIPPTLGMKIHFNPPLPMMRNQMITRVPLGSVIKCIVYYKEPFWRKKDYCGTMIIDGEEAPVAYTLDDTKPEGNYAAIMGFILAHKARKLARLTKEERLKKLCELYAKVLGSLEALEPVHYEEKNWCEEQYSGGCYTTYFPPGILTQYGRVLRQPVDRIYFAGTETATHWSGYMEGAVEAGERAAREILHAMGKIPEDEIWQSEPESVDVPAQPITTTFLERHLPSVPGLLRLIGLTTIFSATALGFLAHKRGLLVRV

human A2A AR = biological target: T6, human A2A AR (Homo sapiens, UniProt P29274); settings: cited from earlier work; for Ki: human (h), 2007, 2013
T6 construct: expressed in transfected cells; host or cells: CHO cells

rat MAO-B = system: rat MAO-B; design: method as in Brunschweiger et al., 2014, 2016; settings: rat (r); Figure 3 and introduction; ref Brunschweiger et al., 2014, 2016; cited from earlier work
rat A2A AR = biological target: T7, rat A2A AR (Rattus norvegicus, UniProt P30543); settings: cited from earlier work
T7 construct: A2A ARs of rat brain striatal membrane preparations; from tissue; host or cells: rat brain striatum membranes

[2] = radioligand, ref Müller et al., 2000

T6 sequence (P29274 whole entry): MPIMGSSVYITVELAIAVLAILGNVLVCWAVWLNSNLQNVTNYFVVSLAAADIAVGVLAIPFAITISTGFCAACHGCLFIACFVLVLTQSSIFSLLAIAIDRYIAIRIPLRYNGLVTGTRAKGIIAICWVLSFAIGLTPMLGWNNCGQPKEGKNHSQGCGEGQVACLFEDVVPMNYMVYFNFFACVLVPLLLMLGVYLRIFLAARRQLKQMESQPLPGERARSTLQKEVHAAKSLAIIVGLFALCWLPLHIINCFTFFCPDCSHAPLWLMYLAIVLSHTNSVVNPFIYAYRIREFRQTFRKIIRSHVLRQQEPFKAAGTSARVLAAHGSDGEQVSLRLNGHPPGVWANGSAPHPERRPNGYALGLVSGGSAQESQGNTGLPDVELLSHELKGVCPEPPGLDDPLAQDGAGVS
T7 sequence (P30543 whole entry): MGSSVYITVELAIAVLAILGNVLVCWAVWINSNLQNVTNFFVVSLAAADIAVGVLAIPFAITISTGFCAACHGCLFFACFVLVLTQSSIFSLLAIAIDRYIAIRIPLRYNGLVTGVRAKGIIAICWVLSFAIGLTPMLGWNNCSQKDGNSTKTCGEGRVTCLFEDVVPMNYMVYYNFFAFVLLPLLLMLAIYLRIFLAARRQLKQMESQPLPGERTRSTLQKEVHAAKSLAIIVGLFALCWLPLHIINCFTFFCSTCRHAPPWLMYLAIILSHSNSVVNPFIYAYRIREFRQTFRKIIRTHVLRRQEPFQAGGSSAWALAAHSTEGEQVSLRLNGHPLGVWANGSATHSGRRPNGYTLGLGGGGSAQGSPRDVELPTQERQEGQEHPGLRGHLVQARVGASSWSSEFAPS

Which inhibition at 10 µM (recombinant human MAO-A; at 10,000 nM, read-out: % inhibition at indicated concentration, Human MAO-A) does the source give for `Cn1c(=O)c2c(nc(C=Cc3cccc(Cl)c3)n2C)n(C)c1=O` [CSC, 8-m-Chlorostyrylcaffeine] here?
Its inhibition at 10 µM is 23%.

What about the IC50 (recombinant human MAO-A; n = 3, read-out: IC50 ± SEM, Human MAO-A) of the same compound?
Its IC50 is greater than 10000 nM.

What about the “% inhibition of radioligand binding at indicated concentration, A1 vs. [^3H]CCPA” value (human A1 AR; at 10,000 nM, ref Müller and Jacobson (2011), Brunschweiger et al. (2014)) of the same compound?
The value was 14%.

And the Ki (human A1 AR; read-out: Ki, A1 vs. [^3H]CCPA, standard antagonists, ref Müller and Jacobson (2011), Brunschweiger et al. (2014))?
Its Ki is greater than 10000 nM.

And the Ki (human A3 AR; standard antagonists, ref Müller and Jacobson (2011), Brunschweiger et al. (2014), read-out: Ki, A3 vs. [^3H]PSB-11)?
The Ki was greater than 10000 nM.

For `O=C(CCCc1ccccc1)Nc1nc2ccccc2c(=O)s1` [Compound 6, N-(4-oxo-4H-3,1-benzothiazin-2-yl)-4-phenylbutanamide], which Ki (human A3 AR; Figure 2, ref Chen et al., 2002, Stössel et al., 2013, Mihara et al., 2007, read-out: A3 (Ki)) is on record?
Its Ki is greater than 1000 nM.

And the Ki (human A2B AR; human (h), Figure 2, ref Chen et al., 2002, Stössel et al., 2013)?
The Ki was greater than 1000 nM.

With `Cc1ccc(-c2cc(-c3cccc(C(=O)N4CCCCC4)c3)nc(N)n2)o1` [Compound 8] as the compound, how does the “effect in haloperidol-induced catalepsy model” value [1] read?
Its value is “in vivo efficacy”.

With `Cn1c(=O)c2c(nc3n2CCN(Cc2cc(F)c(Cl)cc2Cl)C3)n(C)c1=O` [Compound 10a, 8-(2,4-dichloro-5-fluorobenzyl)-1,3-dimethyl-6,7,8,9-tetrahydropyrazino[2,1-f]purine-2,4(1H,3H)-dione] as the compound, how does the IC50 (recombinant human MAO-B; Figure 3 and introduction, ref Drabczynska et al., 2007, Koch et al., Brunschweiger et al., 2014, 2016) read?
The IC50 was 508 nM.

And the Ki (human A1 AR; human (h), Figure 3 and introduction, ref Drabczynska et al., 2007, Koch et al., 2013, Brunschweiger et al., 2014, 2016, read-out: A1 (Ki))?
The Ki was 217 nM.

And the Ki (human A2A AR; Figure 3 and introduction, ref Drabczynska et al., Koch et al., Brunschweiger et al., 2014, 2016)?
The Ki was 268 nM.

Which IC50 (rat MAO-B) does the source give for `Cn1c(=O)c2c(nc3n2CCN(Cc2ccc(Cl)c(Cl)c2)C3)n(C)c1=O` [Compound 10b, 8-(3,4-Dichlorobenzyl)-1,3-dimethyl-6,7,8,9-tetrahydropyrazino[2,1-f]purine-2,4(1H,3H)-dione] here?
The IC50 was 260 nM.

And the Ki (rat A2A AR; rat (r), Figure 3 and introduction, ref Brunschweiger et al., 2014, 2016)?
Its Ki is 322 nM.

For `Cn1c(=O)c2c(nc(-c3ccc(C(=O)Nc4ccccc4)cc3)n2C)n(C)c1=O` [PX-D-P6], which IC50 (recombinant human MAO-B; Figure 2 and introduction, ref Chen et al., 2002, Pretorius et al., 2008, Wang et al., 2017, Stössel et al.) is on record?
The IC50 was 260 nM and 290 nM.

And the “effect in haloperidol-induced catalepsy model” value [1]?
The value was “anti-cataleptic effects”.

What about the Ki (human A2A AR; Figure 2 and introduction, ref Chen et al., 2002, Wang et al., 2017, Stössel et al., Mihara et al.) of the same compound?
Its Ki is 330 nM.

Which Kd (rat A2A AR; [2]) does the source give for `C#CCn1c(=O)c2c(nc(C=Cc3cccc(OC)c3)n2C)n(CCCO)c1=O` [[^3H]MSX-2, [^3H]3-(3-hydroxypropyl)-7-methyl-8-(m-methoxystyryl)-1-propargylxanthine] here?
Its Kd is 8 nM.

What about the Kd (human A2A AR; [2]) of the same compound?
The Kd was 7.3 nM.

With “[^3H]8-(4-[4-(4-chlorophenyl)piperazine-1-sulfonyl]phenyl)-1-propyl-2,3,6,7-tetrahydro-1H-purine-2,6-Dione [[^3H]PSB-603]” as the compound, how does the Kd (human A2B AR; radioligand, ref Borrmann et al., 2009) read?
The Kd was 0.41 nM.

With “[^3H](R)-8-ethyl-4-methyl-2-(phenyl)1,4,7,8-tetrahydro-5H-imidazo[2,1-i]purin-5-one [[^3H]PSB-11]” as the compound, how does the Kd (human A3 AR; radioligand, ref Müller et al., 2002) read?
The Kd was 4.9 nM.
